The results in this text go back to patent US6492370B1, “Urea derivatives and pharmaceutical compositions thereof” (Santen Pharmaceutical Co., Ltd., priority 1998, dated 2002).

Data set [1] concerns TNF-α production from human monocytic line THP-1 by LPS stimulation. In words: In vitro test: TNF-α production from human monocytic line THP-1 by LPS stimulation. The format is cell-based. The conditions noted are these: 2 h; test compound 10^−5 M, THP-1 cells 10^6/ml, LPS 2 μg/ml, 37° C. for two hours, human TNF-α specific ELISA; read-out: Inhibition rate (%) (TNF-α inhibition rates). The protocol:
(§1) Inhibitory effects on TNF-α production induced by lipopolysaccharide (LPS) stimulation were studied by in vitro or in vivo tests according to the method of McGeehan et al. (Nature, 370, […](1994)).
Analyses were carried out by measuring TNF-α production from human monocytic line THP-1 by LPS stimulation.
As a medium, an RPMI1640medium containing a fetal bovine serum(10%), L-glutamine (2 mM), 2-mercaptoethanol (50 μM), penicillin (50 units/ml) and streptomycin (50 μg/ml) was used.
With respect to cells, human monocytic line THP-1 cells cultured in the above-mentioned medium were centrifuged at 100×g for five minutes to remove supernatant and then re-suspended in the medium. With respect to LPS, LPS from S. Typhimurium was dissolved in purified water and then diluted with the medium. Test compounds were dissolved in dimethyl sulfoxide (DMSO) and then diluted with the medium.
The cells (10^6/ml), LPS (2 μg/ml) and the test compound (10^−5 M) prepared as mentioned above were mixed, and this mixture was incubated at 37° C. for two hours and then centrifuged at 1000×g […] in cultured supernatant were measured with a human TNF-α specific ELISA kit. TNF-α production was not observed in the cultured supernatant in the absence of LPS (control).
(§2) TNF-α production inhibition rates of the test compounds were determined by the following equation.
(§3) Inhibition rate (%)=[(A-B)/A]×100
A: TNF-α level in supernatant of culture medium in the absence of test compound
B: TNF-α level in supernatant of culture medium in the presence of test compound
A general note: ELISA stands for enzyme-linked immunosorbent assay.

Data set [2] concerns TNF-α production induced by lipopolysaccharide (LPS) stimulation. In words: In vivo test: TNF-α levels in plasma of LPS-administered rats. Also noted: species or system rat. As to conditions: female rats, oral administration of 50 mg/kg immediately after subcutaneous LPS, plasma two hours after LPS; for inhibition in vivo at 50 mg/kg: Rattus norvegicus, 2 h, read-out: Inhibition rate (%) (TNF-α production inhibition rates). How it is done:
as §1
Female rats (five per group), body weight of about 200 g,about eight weeks old, were used as test animals. With respect to LPS to be used, LPS from Salmonella was dissolved in physiological saline (1 mg/ml). Test compounds were dissolved or uniformly suspended in a 1% aqueous methylcellulose solution.
The above-mentioned LPS solution (0.5 ml/kg) was subcutaneously administered to the rat. Immediately after the LPS administration, the test compound preparation liquid (5 ml/kg, containing 50 mg/kg test compound) was orally administered. Two hours after the LPS administration, blood was collected from abdominal aorta and was centrifuged at 4° C. and 3000 rpm for ten minutes. TNF-α levels in the obtained plasma were measured with a rat TNF-α-specific ELISA kit. TNF-α was not observed in the plasma with respect to an LPS-nonadministered group (control).
as §2, §3
A: TNF-α level in plasma of test compound-nonadministered group
B: TNF-α level in plasma of test compound-administered group

What is called melting point is the temperature of the solid-liquid transition. Regarding `CC(=O)SCCN(CCc1ccccc1)C(=O)N[C@@H](Cc1ccc([N+](=O)[O-])cc1)C(=O)NCCN1C(=O)c2ccccc2C1=O` [Compound No. 27-45, (2S)-2-[3-[2-(Acetylthio)ethyl]-3-phenethylureido]-3-(4-nitrophenyl)-N-[2-(phthalimido)ethyl]propionamide], the melting point is 110 °C.
For orientation: inhibition means the percentage by which the read-out fell short of the control. Take `CC(=O)SCCN(CCc1ccccc1)C(=O)N[C@@H](Cc1ccc([N+](=O)[O-])cc1)C(=O)NCCN(C)C` [Compound No. 27-41, (2S)-2-[3-[2-(Acetylthio)ethyl]-3-phenethylureido]-N-[2-(dimethylamino)ethyl]-3-(4-nitrophenyl)propionamide]: the inhibition at 10 µM in data set [1] is 93.8%.
Same read-out and setting: the result for `CN(C)CCNC(=O)[C@H](Cc1ccc([N+](=O)[O-])cc1)NC(=O)N(CCSC(=O)c1ccccc1)CCc1ccccc1` [Compound No. 27-42, (2S)-2-[3-[2-(Benzoylthio)ethyl]-3-phenethylureido]-N-[2-(dimethylamino)ethyl]-3-(4-nitrophenyl)propionamide] reads 100%.
Take `CC(=O)SCCN(CCC1CCCC1)C(=O)N[C@@H](C)C(=O)N1CCN(C)CC1` [Compound No. 13-57, 1-[(2S)-2-[3-[2-(Acetylthio)ethyl]-3-(2-cyclopentylethyl)ureido]propionyl]-4-methylpiperazine]: the inhibition in vivo at 50 mg/kg in data set [2] was determined as 90.1%.
The same measure, in the same setting: in the case of `CC(=O)SCCN(CCC1CCCCC1)C(=O)N[C@@H](C)C(=O)N1CCN(C)CC1` [Compound No. 13-1, 1-[(2S)-2-[3-[2-(Acetylthio)ethyl]-3-(2-cyclohexylethyl)ureido]propionyl]-4-methylpiperazine] it was 84.6%.
`CCN(CC)CCNC(=O)[C@H](Cc1ccc([N+](=O)[O-])cc1)NC(=O)N(CCSC(C)=O)CCc1ccccc1` [Compound No. 27-47, (2S)-2-[3-[2-(Acetylthio)ethyl]-3-phenethylureido]-N-[2-(diethylamino)ethyl]-3-(4-nitrophenyl)propionamide]: the melting point is 65 °C. Also, the inhibition at 10 µM in data set [1] turned out to be 100%.
Consider `CC(=O)SCCN(C(=O)N[C@@H](C)C(=O)N1CCN(C)CC1)c1ccccc1` [Compound No. 13-17, 1-[(2S)-2-[3-[2-(Acetylthio)ethyl]-3-phenylureido]propionyl]-4-methylpiperazine], for which, in data set [2], the inhibition in vivo at 50 mg/kg worked out at 50.3%.
With `CC(=O)SCCN(CCc1ccccc1)C(=O)N[C@@H](Cc1ccc2ccccc2c1)C(=O)NCCN(C)C` [Compound No. 27-58, (2S)-2-[3-[2-(Acetylthio)ethyl]-3-phenethylureido]-N-[2-(dimethylamino)ethyl]-3-(2-naphthyl)propionamide], the inhibition at 10 µM in data set [1] amounted to 100%.
For `CC(=O)SCCN(CCc1ccccc1)C(=O)NCC(=O)N1CCN(C)CC1` [Compound No. 13-20, 1-[2-[3-[2-(Acetylthio)ethyl]-3-phenethylureido]acetyl]-4-methylpiperazine], the inhibition in vivo at 50 mg/kg in data set [2] was 66.6%.
The same measure, in the same setting: the result for `CC(=O)SCCN(CCCc1ccccc1)C(=O)N[C@@H](C)C(=O)N1CCN(C)CC1` [Compound No. 13-12, 1-[(2S)-2-[3-[2-(Acetylthio)ethyl]-3-(3-phenylpropyl)ureido]propionyl]-4-methylpiperazine] reads 62.3%; that for `CC(=O)SCCN(CCC1CCCCC1)C(=O)N[C@@H](C)C(=O)N1CCCCC1` [Compound No. 13-49, 1-[(2S)-2-[3-[2-(Acetylthio)ethyl]-3-(2-cyclohexylethyl)ureido]propionyl]piperidine], 90%.
In the case of `CC(=O)SCCN(CCc1ccccc1)C(=O)N[C@@H](Cc1ccc(F)cc1)C(=O)NCCN(C)C` [Compound No. 27-54, (2S)-2-[3-[2-(Acetylthio)ethyl]-3-phenethylureido]-N-[2-(dimethylamino)ethyl]-3-(4-fluorophenyl)propionamide], the melting point amounted to 90 °C.
`CC(=O)SCCN(CCC1=CCCCC1)C(=O)N[C@@H](C)C(=O)N1CCN(C)CC1` [Compound No. 27-84, 1-[(2S)-2-[3-[2-(Acetylthio)ethyl]-3-[2-(1-cyclohexenyl)ethyl]ureido]propionyl]-4-methylpiperazine]: in data set [2], the inhibition in vivo at 50 mg/kg amounted to 56.7%.
The compound `CC(=O)SCCN(CCc1ccccc1)C(=O)N[C@@H](Cc1ccc([N+](=O)[O-])cc1)C(=O)NCCc1ccccn1` [Compound No. 27-50, (2S)-2-[3-[2-(Acetylthio)ethyl]-3-phenethylureido]-3-(4-nitrophenyl)-N-[2-(2-pyridyl)ethyl]propionamide] registered a melting point of 106 to 112.5 °C.
For the compound `CC(=O)SCCN(CCc1ccccc1)C(=O)N[C@@H](Cc1ccc(Cl)cc1)C(=O)NCCN(C)C` [Compound No. 27-17, (2S)-2-[3-[2-(Acetylthio)ethyl]-3-phenethylureido]-3-(4-chlorophenyl)-N-[2-(dimethylamino)ethyl]propionamide], in data set [1], the inhibition at 10 µM is 93.5%.
As to `CC(=O)SCCN(CCc1ccccc1)C(=O)N[C@@H](Cc1ccc([N+](=O)[O-])cc1)C(=O)NCCN(C)C1CCCCC1` [Compound No. 27-46, (2S)-2-[3-[2-(Acetylthio)ethyl]-3-phenethylureido]-N-[2-[(N-methyl)cyclohexylamino]ethyl]-3-(4-nitrophenyl)propionamide], the melting point was determined as 90 °C. Also, the inhibition at 10 µM in data set [1] turned out to be 100%.
On to `CC(=O)SCCN(CCC1CCCCC1)C(=O)N[C@@H](C)C(=O)N1CCOCC1` [Compound No. 13-50, 4-[(2S)-2-[3-[2-(Acetylthio)ethyl]-3-(2-cyclohexylethyl)ureido]propionyl]morpholine], for which, in data set [2], the inhibition in vivo at 50 mg/kg came to 93.5%.
For `CC(=O)SCCN(CCc1ccccc1)C(=O)N[C@@H](Cc1ccc([N+](=O)[O-])cc1)C(=O)NCCN(C(C)C)C(C)C` [Compound No. 27-10], the inhibition at 10 µM in data set [1] stood at 100%.
As for `CC(=O)SCCN(CCc1ccccc1)C(=O)N[C@H](C)C(=O)N1CCN(C)CC1` [Compound No. 13-3, 1-[(2R)-2-[3-[2-(Acetylthio)ethyl]-3-phenethylureido]propionyl]-4-methylpiperazine], the inhibition in vivo at 50 mg/kg in data set [2] came to 66.8%.
Regarding `CC(=O)SCCN(CCc1ccccc1)C(=O)N[C@@H](Cc1ccccc1)C(=O)N1CCN(CC(=O)O)CC1` [Compound No. 13-32, 1-[(2S)-2-[3-[2-(Acetylthio)ethyl]-3-phenethylureido]-3-phenylpropionyl]-4-(carboxymethyl)piperazine], the melting point is 230 °C (dec.).
In the case of `COc1ccc(C[C@H](NC(=O)N(CCSC(C)=O)CCc2ccccc2)C(=O)NCCN(C)C)cc1` [Compound No. 27-56, (2S)-2-[3-[2-(Acetylthio)ethyl]-3-phenethylureido]-N-[2-(dimethylamino)ethyl]-3-(4-methoxyphenyl)propionamide], in data set [1], the inhibition at 10 µM was found to be 96.9%.
Consider `CC(=O)Nc1ccc(C[C@H](NC(=O)N(CCSC(C)=O)CCc2ccccc2)C(=O)NCCN(C)C)cc1` [Compound No. 27-82, (2S)-3-[4-(Acetylamino)phenyl]-2-[3-[2-(acetylthio)ethyl]-3-phenethylureido]-N-[2-(dimethylamino)ethyl]propionamide], for which the melting point is 95 °C (dec.).
As for `CSCCC(NC(=O)N(CCSC(C)=O)CCc1ccccc1)C(=O)N1CCN(C)CC1` (racemic) [Compound No. 27-4, 1-[(2RS)-2-[3-[2-(Acetylthio)ethyl]-3-phenethylureido]-4-(methylthio)butyryl]-4-methylpiperazine], the inhibition in vivo at 50 mg/kg in data set [2] stood at 60.9%.
For the compound `CC(=O)SCCN(CCc1ccccc1)C(=O)N[C@@H](Cc1ccc(-c2ccccc2)cc1)C(=O)NCCN(C)C` [Compound No. 27-59, (2S)-2-[3-[2-(Acetylthio)ethyl]-3-phenethylureido]-3-(4-biphenylyl)-N-[2-(dimethylamino)ethyl]propionamide], in data set [1], the inhibition at 10 µM is 100%.
Consider `CC(=O)SCCN(CCOc1ccccc1)C(=O)N[C@@H](C)C(=O)N1CCN(C)CC1` [Compound No. 13-16], for which, in data set [2], the “Inhibition rate (%) (TNF-α production inhibition rates)” value turned out to be 54.1%.
